{"source": "patent US20250332183A1", "about": "“COMPOSITIONS AND METHODS FOR THE STIMULATION OF INTERMEDIATE MACROPHAGES AND TREATMENTS THEREWITH” (priority 2024, published 2025)", "key": {"[1]": {"tested_on": "IL-1β, IL-6, IL-10 and soluble CD163 in lamb plasma", "assay": "Plasma cytokine and soluble CD163 ELISA in lambs", "assay_type": "in vivo", "conditions": "early-stage study, PT lambs vs vehicle", "text": "ELISA: The serum and bronchoalveolar lavage (BAL) fluid samples were used to quantify cytokine and soluble CD163 (sCD163) concentrations. The ELISA experiment analysis used commercially available ELISA kits, which were quantified using a plate reader. The inventors used GraphPad Prism V. 10.4. All sheep (ovine) ELISA kits were used within the expiry dates. Ovine IL-1β(Cat #ELO-IL1β), and ovine IL-6 (Cat #ELO-IL6) ELISA kits were purchased from RayBiotech, Peachtree Corners, GA, USA, sheep IL-10 (Cat #E12817Sh-96) was purchased from Lifeome Biolabs, Oceanside, CA, sheep CD163 (cat #MBS9364870) was purchased from MyBioSource, Inc. San Diego, CA, and Pierce™ BCA Protein Assay Kit (Cat #23227) from Thermo Fischer Scientific, Rockford, IL."}, "[2]": {"tested_on": "cord blood mononuclear cells (CBMCs)", "assay": "Cytokine profile in LPS-challenged CBMCs", "assay_type": "cell-based, human", "conditions": "compound 100 μM + LPS 50 ng/mL vs LPS treated cells", "description": "FIGS. 15A TO 15F show the AVR-48 cytokine profile in CBMCs. Cells treated with AVR-48 [100 μM], LPS [50 ng/mL] and AVR-48+LPS show a decrease (˜2-4-fold) in cytokine signal in (FIG. 15A) TNF-α, (FIG. 15B) IL-1β, (FIG. 15C) IL-10, (FIG. 15D) IL-12, (FIG. 15E) IL-6, and (FIG. 15F) IL-8, and indicates a reduced […] response as compared to LPS treated cells solo. N=3, One-way ANOVA was used for analysis.\nCBMCs were treated with either AVR-123 [100 μM], LPS [50 ng/mL] or AVR-123+LPS for 24 h. […] (FIG. 23G) AVR-123 decreases phosphorylated NFkB alone and when combined with LPS in CBMCs via western blot analysis. N=3, One-way ANOVA."}, "[3]": {"conditions": "efficacy dose 10 mg/kg intraperitoneal injection; read-out: Cmax in mouse pups' plasma; cited from earlier work"}, "CD163 scavenger receptor": {"target": "T1, CD163 scavenger receptor (Homo sapiens, UniProt Q86VB7)", "T1 construct": "endogenous in cells; host or cells: human cord blood mononuclear cells (monocytes and lymphocytes)", "T1 sequence (Q86VB7 42-1156)": "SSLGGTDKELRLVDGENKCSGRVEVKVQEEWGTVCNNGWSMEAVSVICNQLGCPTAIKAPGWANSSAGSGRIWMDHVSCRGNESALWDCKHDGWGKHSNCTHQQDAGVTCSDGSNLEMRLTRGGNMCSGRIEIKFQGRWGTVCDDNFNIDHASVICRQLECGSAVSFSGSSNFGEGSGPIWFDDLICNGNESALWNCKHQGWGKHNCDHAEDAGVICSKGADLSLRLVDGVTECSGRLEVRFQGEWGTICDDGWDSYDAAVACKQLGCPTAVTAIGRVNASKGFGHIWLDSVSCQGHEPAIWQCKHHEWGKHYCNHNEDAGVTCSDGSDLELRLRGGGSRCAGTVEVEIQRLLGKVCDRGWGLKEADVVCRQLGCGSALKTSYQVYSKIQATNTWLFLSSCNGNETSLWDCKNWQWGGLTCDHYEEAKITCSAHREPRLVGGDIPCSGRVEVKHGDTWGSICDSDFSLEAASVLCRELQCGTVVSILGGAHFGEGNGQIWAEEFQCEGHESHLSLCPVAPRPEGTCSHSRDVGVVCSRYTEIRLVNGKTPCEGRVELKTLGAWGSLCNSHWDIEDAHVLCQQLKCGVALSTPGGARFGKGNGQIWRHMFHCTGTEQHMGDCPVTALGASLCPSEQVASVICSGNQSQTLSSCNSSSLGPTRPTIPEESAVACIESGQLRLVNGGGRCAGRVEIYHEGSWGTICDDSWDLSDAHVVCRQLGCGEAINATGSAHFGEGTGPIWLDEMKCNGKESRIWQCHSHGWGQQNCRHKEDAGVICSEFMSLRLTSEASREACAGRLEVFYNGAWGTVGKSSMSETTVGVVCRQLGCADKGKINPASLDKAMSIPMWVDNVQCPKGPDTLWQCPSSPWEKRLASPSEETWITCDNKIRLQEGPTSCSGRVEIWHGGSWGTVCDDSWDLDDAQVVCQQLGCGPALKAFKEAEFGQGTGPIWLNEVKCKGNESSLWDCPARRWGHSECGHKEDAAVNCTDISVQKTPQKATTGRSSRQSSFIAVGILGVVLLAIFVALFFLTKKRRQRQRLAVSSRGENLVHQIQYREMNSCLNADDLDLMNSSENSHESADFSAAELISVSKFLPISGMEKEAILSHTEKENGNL", "assay": "Binding of AVR-48 to CBMC monocytes and lymphocytes by flow cytometry", "text": "N=3 *p≤0.05, **p≤0.01, ***p≤0.001, **** p≤0.0001. Two-way ANOVA was used for statistical analysis."}, "[4]": {"tested_on": "preterm lamb model of BPD", "assay": "Respiratory gas exchange / oxygenation and ventilation indices in ventilated preterm lambs", "assay_type": "in vivo", "description": "For dose-optimization, preterm (PT) lambs were delivered at ˜128d (d; saccular stage of lung development; ˜85% gestation) after maternal antenatal steroids exposure. […] After delivery and surfactant administration, PT lambs were maintained on invasive mechanical ventilation (IMV) for 7d followed by 3d noninvasive respiratory support. For the early-stage study, outcomes were determined for PT lambs over DOL1-10. For the late-stage study, outcomes were determined for former preterm (FPT) lambs (vehicle, AVR-48 treated) that were weaned from respiratory support after 10d and were maintained in the lamb intensive care unit for a further 80d. Outcomes included functional, structural, molecular, and neurobehavioral assessments. Term reference lambs that were never ventilated were used as developmental references for the FPT lambs.\nArterial blood gases were obtained starting at 15 min of postnatal life and taken every 15 min for the first 90 min of postnatal life. FiO2 was decreased to attain a target oxygenation of O2 saturation 88-94% by pulse oximetry (Model SurgiVet V9200IBP/Temp, Smith Medical ASD, Inc., St. Paul, MN). PIP was adjusted to attain a target PaCO2 between 45 and 60 mmHg. The resultant pH range was between 7.25-7.35.\nStudy design. A randomized, blinded, placebo-controlled study design was used for both endpoints. For each endpoint study, one group of PT lambs was treated with vehicle (saline, intravenously, iv, over about 10 min) for 7d and thus served as control. Another group of PT lambs was treated iv with AVR-48 for 7d. Either treatment was started at 6 h of postnatal life to allow the PT lambs to stabilize after Cesarean-section delivery and resuscitation physiologically and to permit initiation of ventilator-induced lung injury. The inventors relied on visual identification of biological sex at the time of delivery in the absence of an ultrasound unit in the lamb intensive care unit. The inventors tracked sex as a biological variable, but the study could not assess differences in outcomes based on sex because of small sample sizes."}, "[5]": {"assay": "Clinical biochemistry and physiological parameters of treated lambs", "assay_type": "in vivo, lamb", "description": "Arterial blood and free-fall urine samples were collected every 24 h and analyzed for indicators of liver and kidney function (Associated Regional and University Pathologists (ARUP) Laboratories, Salt Lake City).\nClinical biochemistry. Plasma and urine samples were analyzed by Associated Regional and University Pathologists (ARUP) at the University of Utah. Plasma renal function parameters are urea nitrogen and creatinine. Plasma hepatic function parameters are alkaline phosphatase, aspartate aminotransferase, alanine aminotransferase, total protein, albumin, bilirubin total, and direct bilirubin.\nPhysiological parameters for lambs in the early and late-stage studies. Physiology results were obtained including cardiovascular physiology, temperature, respiratory rates, indices for oxygenation, ventilation indices, plasma pH, bicarbonate, base excess, plasma electrolytes, plasma glucose, hematocrit (Hct), total serum protein (Tsp), lactate, enteral feeding, milk residual, and hematology for early and late-stage studies."}, "[6]": {"tested_on": "preterm lamb model of BPD", "assay": "Survival and growth in mechanically ventilated preterm lamb BPD model", "assay_type": "in vivo", "quoted_text": "Study timeline. FIGS. 1A and 1B show the timeline for the two-endpoint study using two groups of PT lambs. The first endpoint used PT lambs managed by IMV for 7d, followed by extubation to noninvasive respiratory support (NRS) for up to 3d of life (DOL7-10). At that time, terminal tissues were collected. The second endpoint used the same management protocol, followed by weaning the lambs from respiratory support and having them live in the lamb intensive care unit as former PT (FPT) lambs for 2 months corrected postnatal age (3 months chronological age, DOL 90). The rationale for the 2-month corrected postnatal age for FPT lambs is when sheep are weaned from milk, equivalent to about 12-18 months for humans. Methods for the FPT lamb model have been reported.^14,17\nPT lamb model and methods for all outcome measures. Surgical preparation and management of lamb groups. Delivery and clinical management methods for PT lambs (6-8) and FPT lambs (3, 4). Briefly, time-pregnant ewes that had single or twin fetuses at ˜128d (˜85%) gestation (term ˜150d gestation) were used (main FIGS. 1A and 1B). The fetuses were exposed to antenatal steroids (dexamethasone) at ˜48 h and ˜24 h before Cesarean-section (exit-procedure) delivery. […]"}, "[7]": {"conditions": "early-stage study DOL 1-7, vs vehicle"}, "[8]": {"conditions": "early-stage study, PT lambs, 3.0 mg/kg, vs vehicle"}}, "note": "Entries after “also recorded” stand apart in the source; their conditions may differ."}
{"compound": "CC(=O)NC1C(Oc2ccc([N+](=O)[O-])cc2)OC(CO)C(O)C1O", "note": "(stereo not drawn) [AVR-48]", "values": [{"measurement": "plasma concentration of IL-1β", "setting": "[1]; 6-10 h", "result": "significantly lower"}, {"measurement": "plasma concentration of IL-6", "setting": "[1]; 72-75 h", "result": "significantly lower"}, {"measurement": "plasma concentration of IL-10", "setting": "[1]; 138-150 h", "result": "significantly higher"}, {"measurement": "decrease in IL-1β", "setting": "[2]", "result": "2-4 fold"}, {"measurement": "decrease in IL-6", "setting": "[2]", "result": "2-4 fold"}, {"measurement": "decrease in IL-8", "setting": "[2]", "result": "2-4 fold"}, {"measurement": "decrease in IL-10", "setting": "[2]", "result": "2-4 fold"}, {"measurement": "decrease in IL-12", "setting": "[2]", "result": "2-4 fold"}, {"measurement": "decrease in TNF-α", "setting": "[2]", "result": "2-4 fold"}, {"measurement": "Cmax", "setting": "[3]", "result": 5.7, "unit": "µM"}, {"measurement": "binding to CD163 scavenger receptor", "setting": "CD163 scavenger receptor", "result": "exhibits a binding affinity"}, {"measurement": "BPD-like symptoms", "setting": "[4]; 10d period, dose escalation 0.1-9.0 mg/kg/dose", "result": "diminished in a dose-related manner"}, {"measurement": "respiratory severity score (RSS)", "setting": "[4]; early-stage pilot, PT lambs, 1.0 mg/kg iv every 12 h", "result": "improved moderately"}, {"measurement": "FiO2 and PaO2", "setting": "[4]; [7]", "result": "No statistical difference"}, {"measurement": "PIP and PaCO2", "setting": "[4]; [7]", "result": "No statistical difference"}, {"measurement": "respiratory severity score (RSS)", "setting": "[4]; early-stage study, PT lambs, 3.0 mg/kg iv every 12 h, vs vehicle, 3 mg/kg", "result": "Significant improvements; also recorded: significantly improved"}, {"measurement": "Alveolar-arterial (A-a) gradient", "setting": "[4]; [8]", "result": "significantly improved"}, {"measurement": "SpO2/FiO2 (SF) ratio", "setting": "[4]; [8]", "result": "significantly improved"}, {"measurement": "oxygenation index", "setting": "[4]; [8]", "result": "significantly improved"}, {"measurement": "clinical parameters (plasma renal and hepatic function)", "setting": "[5]; AVR-48 treated lambs", "result": "within the normal range"}, {"measurement": "physiological outcomes (cardiovascular, temperature, respiratory rates, plasma chemistry, feeding, hematology)", "setting": "[5]; early and late-stage studies", "result": "no adverse effect"}, {"measurement": "Hematology", "setting": "[5]; [7]", "result": "No statistical difference"}, {"measurement": "plasma glucose, Hct, Tsp, and lactate", "setting": "[5]; [7]", "result": "No statistical difference"}, {"measurement": "plasma pH, bicarbonate, and BE", "setting": "[5]; [7]", "result": "No statistical difference"}, {"measurement": "temperature or respiratory rate", "setting": "[5]; [7]", "result": "No statistical difference"}, {"measurement": "systolic blood pressure", "setting": "[5]; early-stage study, DOL 6, vs vehicle, not observed on any other days", "result": "higher systolic blood pressure"}, {"measurement": "volume of tolerable enteral feeding and residual in the stomach", "setting": "[5]; in vivo", "result": "No statistical difference"}, {"measurement": "survival", "setting": "[6]; early-stage study, PT lambs", "result": "~100", "unit": "%"}, {"measurement": "survival", "setting": "[6]; late-stage study d10-d90, FPT lambs, 3.0 mg/kg iv every 12 h DOL1-7", "result": 80, "unit": "%"}, {"measurement": "body weight", "setting": "[6]; late-stage study, FPT AVR-48 lambs vs FPT vehicle lambs", "result": "significantly increased"}]}
